Experimental data reported in patent US20030153538A1, “Antitumor agent” (The Nisshin OilliO, Ltd., priority 2000, published 2003).
“Also recorded” adds a separate entry of the source. Where two headings read alike, the source gives them in different places.

Legend:
B-16 melanoma cells = experiment: Tests for tumor cell-proliferation-inhibitory effect and tumor cell-extinction (cell growth rate from viable cell count); assay type: cell-based; details: for tumor cell-killing effect (in words): at not less than 2 times the concentration required for proliferation inhibition
Procedure: The tumor cell-proliferation-inhibitory effect and the tumor cell-killing or extinction effect can be determined according to the following method using B-16 melanoma cells.
More specifically, B-16 melanoma cells are inoculated in each well of a 6-well plate in a desired amount, followed by allowing the plate to stand at 37° C. and 5% carbon dioxide concentration to thus cultivate the cells, adding a sample solution to be tested (maslinic acid, erythrodiol, ursolic acid, uvaol, betulinic acid, betulin and physiologically acceptable salts thereof or derivatives thereof) to each well in an amount sufficient for achieving a desired concentration, on the next day or after 5 days from the initiation of the cultivation, determination of viable cell count on the 6th day after the initiation of the cultivation and calculation of the cell growth rate based on the viable cell count to thus evaluate the tumor cell-proliferation-inhibitory effect and the tumor cell-killing effect.
Tests for determining the tumor cell-proliferation-inhibitory effect and the tumor cell-killing effect were conducted according to the following method. To a 6-well plate, a culture medium was dispensed in an amount of 2 mL/well, B-16 melanoma cells were then inoculated in a desired quantity and thereafter the melanoma cells were cultivated by allowing the plate or the culture medium to stand at 37° C. and a carbon dioxide concentration of 5%. On the following day, a test sample solution prepared was added to and admixed with the content of each well to a desired concentration and the cultivation of the melanoma cells was continued. The culture medium was then exchanged on the 5th day from the initiation of the cultivation and the test sample solution was again added to each well. On the next day, the culture medium was removed to recover the cultivated melanoma cells, followed by washing the cells with PBS (phosphate buffered saline), determination of the viable cell count, and then calculation of the cell growth rate according to the following equation 1. The tumor cell-proliferation-inhibitory effect and the tumor cell-killing effect of each test sample were evaluated on the basis of the cell growth rate thus determined.
Cell Growth Rate (%)=(A/B)×100
As comparative examples, oleanolic acid, β-amyrin, α-amyrin and lupeol were added to the culture medium to thus determine and evaluate the cell growth rate by the same method used above.

B16 melanoma cells = experiment: Test for malignant melanoma metastasis-inhibitory effect (lung metastasis after i.v. injection of B16 melanoma cells); assay type: in vivo, Whister female rats; details: rats; for RMI (rate of metastasis-inhibition): every other day, lung lesions on 15th day; for tumor cell-metastasis-inhibitory effect compared with the control group (in words): metastasis of cancer to lung, summary of Table 2
Procedure: The tumor cell-metastasis-inhibitory effect can be evaluated according to, for instance, the malignant melanoma metastasis-inhibitory test. More specifically, a suspension of B16 melanoma cells prepared in advance is intravenously injected into Whister female rats, cotton seed oil in which each test substance is dissolved in a predetermined concentration is intraperitoneally administered through injection or orally administered using a sonde, every second day starting from 2nd day after the intravenous injection of the suspension. In this connection, only cotton seed oil is administered to the control group of animals. The lungs are extracted from these animals on the 15th day after the injection of the B16 melanoma cells, the lungs are examined to determine the number of cancer lesions thus metastasized to thus calculate the rate of metastasis-inhibition. The tumor cell-metastasis-inhibitory effect of each test sample is evaluated on the basis of the resulting rate of metastasis-inhibition.
Tests for evaluating the malignant melanoma metastasis-inhibitory effect of each test sample were conducted according to the following method. Whister female rats (6-week-old; average body weight: 160 g) were preliminarily bred with a powdery feed preparation having a composition of AIN-93 for one week, these animals were divided into 5 groups (8 animals per group) so as to equalize the average body weight and then a previously prepared suspension of B16 melanoma cells was intravenously injected into each rat. Subsequently, these animals were bred with a powdery feed preparation having a composition of AIN-93 and cotton seed oil in which each of maslinic acid, erythrodiol, ursolic acid, uvaol, betulinic acid, betulin, compounds of Synthetic Examples 1 and 2, or oleanolic acid had been dissolved in a predetermined concentration was intraperitoneally injected into each animal or orally administered thereto using a sonde, every other day starting from the 2nd day after the injection of the B 16 melanoma cells. In this connection, only cotton seed oil was administered to the control group. On the 15th day after the injection of the B 16 melanoma cells, the lung of each animal was taken out, the lungs were examined to determine the number of cancer lesions thus metastasized and to thus calculate the rate of metastasis-inhibition in accordance with the following equation 2. The tumor cell-metastasis-inhibitory effect of each test sample could be evaluated on the basis of the resulting rate of metastasis-inhibition.
Rate of Metastasis-Inhibition (%)=[(D−C)/D]×100
Wherein C: Average number of cancer lesions metastasized observed in each animal group; and D: average number of cancer lesions metastasized observed in the control group.
Maslinic acid, erythrodiol, ursolic acid, uvaol, betulinic acid, betulin and physiologically acceptable salts thereof or derivatives thereof as well as cotton seed oil as the control were inspected for the rate of metastasis-inhibition (RMI) using the dose and administration methods specified in the following Table 2. In addition, the same procedures used above were repeated except for using oleanolic acid as a comparative sample to thus evaluate the rate of metastasis-inhibition (RMI) thereof.

[1] = Mus musculus, B16, 144 h, 5 ppm, viable cell count vs control on 6th day, read-out: Cell Growth Rate
[2] = Mus musculus, B16, 144 h, 15 ppm, viable cell count vs control on 6th day, read-out: Cell Growth Rate
[3] = Mus musculus, B16, 144 h, 25 ppm, viable cell count vs control on 6th day, read-out: Cell Growth Rate
[4] = Mus musculus, B16, 144 h, viable cell count vs control on 6th day
[5] = 100 mg/body wt. (kg), Oral Adm.
[6] = Mus musculus, B16, 144 h, 20 ppm, viable cell count vs control on 6th day, read-out: Cell Growth Rate

Compound | activity at 5 ppm (B-16 melanoma cells; [1]) | activity at 15 ppm (B-16 melanoma cells; [2]) | activity at 25 ppm (B-16 melanoma cells; [3]) | activity at 50 ppm (B-16 melanoma cells; [4]) | tumor cell-proliferation-inhibitory effect (in words) (B-16 melanoma cells; summary of Table 1) | RMI (rate of metastasis-inhibition) (B16 melanoma cells; [5]) | tumor cell-metastasis-inhibitory effect compared with the control group (in words) (B16 melanoma cells) | tumor cell-killing effect (in words) (B-16 melanoma cells) | further results
CC1(C)CC[C@]2(CO)CC[C@]3(C)C(=CC[C@@H]4[C@@]5(C)CC[C@H](O)C(C)(C)[C@@H]5CC[C@]43C)[C@@H]2C1 [Erythrodiol] | 73% | 69% | 53% | 43% | quite strong tumor cell-proliferation-inhibitory effects | 56.3% | significantly (P<0.05) inhibit any metastasis of cancer to lung | – | –
CC1(C)CC[C@]2(C(=O)O)CC[C@]3(C)C(=CC[C@@H]4[C@@]5(C)CC[C@H](O)C(C)(C)[C@@H]5CC[C@]43C)[C@@H]2C1 [Oleanolic acid, oleanolic acid, reference compound] | – | 100% | 100% | 94% | cannot inhibit the proliferation of the B-16 melanoma cells at all | – | does not possess any tumor cell-metastasis-inhibitory effect; also recorded: Any significant effect was not observed | not observed | activity at 20 ppm (B-16 melanoma cells; [6]): 100%; activity at 30 ppm (B-16 melanoma cells; Mus musculus, B16, 144 h, 30 ppm, viable cell count vs control on 6th day): 100%; activity at 40 ppm (B-16 melanoma cells; Mus musculus, B16, 144 h, 40 ppm, viable cell count vs control on 6th day): 100%; tumor cell-proliferation-inhibitory effect (in words) (B-16 melanoma cells; summary of Table 1, listed as oleanolic acid): quite weak tumor cell-proliferation-inhibitory effect only at a higher concentration; RMI (rate of metastasis-inhibition) (B16 melanoma cells; 300 mg/body wt. (kg), Oral Adm.): 9.2%
CC1(C)CC[C@]2(C(=O)O)CC[C@]3(C)C(=CC[C@@H]4[C@@]5(C)C[C@@H](O)[C@H](O)C(C)(C)[C@@H]5CC[C@]43C)[C@@H]2C1 [Purified maslinic acid 1, maslinic acid] | – | – | – | – | – | – | – | – | Cell Growth Rate (B-16 melanoma cells; 5 ppm, viable cell count vs control on 6th day): 67%; Cell Growth Rate (B-16 melanoma cells; 10 ppm, viable cell count vs control on 6th day): 43%; Cell Growth Rate (B-16 melanoma cells; 15 ppm, viable cell count vs control on 6th day): 6%; Cell Growth Rate (B-16 melanoma cells; 20 ppm, viable cell count vs control on 6th day): 0%; Cell Growth Rate (B-16 melanoma cells; 25 ppm, viable cell count vs control on 6th day): 0%; RMI (rate of metastasis-inhibition) (B16 melanoma cells; 50 mg/body wt. (kg), Oral Adm.): 61.4%
CC1(C)CC[C@]2(C(=O)O)CC[C@]3(C)C(=CC[C@@H]4[C@@]5(C)C[C@@H](O)[C@H](O)C(C)(C)[C@@H]5CC[C@]43C)[C@@H]2C1 [Purified maslinic acid 2, maslinic acid] | – | – | – | – | – | 78.6% | – | – | activity at 5 ppm (B-16 melanoma cells; Mus musculus, B16, 144 h, read-out: Cell Growth Rate, 5 ppm, viable cell count vs control on 6th day): 75%; activity at 10 ppm (B-16 melanoma cells; Mus musculus, B16, 144 h, read-out: Cell Growth Rate, 10 ppm, viable cell count vs control on 6th day): 47%; activity at 15 ppm (B-16 melanoma cells; Mus musculus, B16, 144 h, read-out: Cell Growth Rate, 15 ppm, viable cell count vs control on 6th day): 11%; activity at 20 ppm (B-16 melanoma cells; Mus musculus, B16, 144 h, read-out: Cell Growth Rate, 20 ppm, viable cell count vs control on 6th day): 0%; activity at 25 ppm (B-16 melanoma cells; Mus musculus, B16, 144 h, read-out: Cell Growth Rate, 25 ppm, viable cell count vs control on 6th day): 0%; RMI (rate of metastasis-inhibition) (B16 melanoma cells; 50 mg/body wt. (kg), I.P. Adm.): 67.3%
C[C@H]1[C@H](C)CC[C@]2(C(=O)O)CC[C@]3(C)C(=CC[C@@H]4[C@@]5(C)CC[C@H](O)C(C)(C)[C@@H]5CC[C@]43C)[C@H]12 [Ursolic acid] | 64% | 3% | 0% | 0% | quite strong tumor cell-proliferation-inhibitory effects | 79.5% | significantly (P<0.05) inhibit any metastasis of cancer to lung | quite intensive tumor cell-killing effects | activity at 10 ppm (B-16 melanoma cells; Mus musculus, B16, 144 h, 10 ppm, viable cell count vs control on 6th day, read-out: Cell Growth Rate): 40%; activity at 20 ppm (B-16 melanoma cells; [6]): 0%
C[C@H]1[C@H](C)CC[C@]2(CO)CC[C@]3(C)C(=CC[C@@H]4[C@@]5(C)CC[C@H](O)C(C)(C)[C@@H]5CC[C@]43C)[C@H]12 [Uvaol] | 80% | 69% | 49% | 30% | quite strong tumor cell-proliferation-inhibitory effects | 43.7% | significantly (P<0.05) inhibit any metastasis of cancer to lung | – | –
CC1(C)CC[C@]2(C(=O)O)CC[C@]3(C)C(=CC[C@@H]4[C@@]5(C)C[C@@H](O)[C@H](O)C(C)(C)[C@@H]5CC[C@]43C)[C@@H]2C1 [maslinic acid] | – | – | – | – | quite strong tumor cell-proliferation-inhibitory effects | – | significantly (P<0.05) inhibit any metastasis of cancer to lung | quite intensive tumor cell-killing effects | –
